From patent US20250034216A1, “STEREOSELECTIVE COVALENT LIGANDS FOR ONCOGENIC AND IMMUNOLOGICAL PROTEINS” (The Scripps Research Institute, priority 2021, published 2025)

What was measured:
Test in all cases: IA-DTB cysteine engagement
Type in all cases: binding
Settings in all cases: 22Rv1 cells, 20 μM probe, 1 h, relative to DMSO
ACTL8_C197 = biological target: T1, ACTL8_C197 (Homo sapiens, UniProt Q9H568)
T1 construct: endogenous in cells; host or cells: 22Rv1
T1 sequence (Q9H568 1-366): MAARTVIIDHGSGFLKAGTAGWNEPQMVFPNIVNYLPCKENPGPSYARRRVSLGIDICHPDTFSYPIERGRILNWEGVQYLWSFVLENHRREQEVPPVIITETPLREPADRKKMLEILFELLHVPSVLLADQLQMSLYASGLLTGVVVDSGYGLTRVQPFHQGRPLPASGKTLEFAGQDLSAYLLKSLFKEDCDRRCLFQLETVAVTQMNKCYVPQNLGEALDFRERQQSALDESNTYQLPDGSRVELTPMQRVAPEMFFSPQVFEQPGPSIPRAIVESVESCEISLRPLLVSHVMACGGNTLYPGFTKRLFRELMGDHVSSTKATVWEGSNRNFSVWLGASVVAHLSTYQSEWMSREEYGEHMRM
Outline: (§1)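 In-situ probe treatment of cells; lysate 2 mg/mL, IA-DTB 1 h RT; MeOH/CHCl3 precipitation, DTT/iodoacetamide, trypsin; streptavidin enrichment; TMT labeling, high-pH fractionation. Ratio = TMT reporter intensity / mean DMSO channels, median-normalized.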

CNOT4_C175 = biological target: T2, CNOT4_C175 (Homo sapiens, UniProt O95628)
T2 construct: endogenous in cells; host or cells: 22Rv1
T2 sequence (O95628 1-575): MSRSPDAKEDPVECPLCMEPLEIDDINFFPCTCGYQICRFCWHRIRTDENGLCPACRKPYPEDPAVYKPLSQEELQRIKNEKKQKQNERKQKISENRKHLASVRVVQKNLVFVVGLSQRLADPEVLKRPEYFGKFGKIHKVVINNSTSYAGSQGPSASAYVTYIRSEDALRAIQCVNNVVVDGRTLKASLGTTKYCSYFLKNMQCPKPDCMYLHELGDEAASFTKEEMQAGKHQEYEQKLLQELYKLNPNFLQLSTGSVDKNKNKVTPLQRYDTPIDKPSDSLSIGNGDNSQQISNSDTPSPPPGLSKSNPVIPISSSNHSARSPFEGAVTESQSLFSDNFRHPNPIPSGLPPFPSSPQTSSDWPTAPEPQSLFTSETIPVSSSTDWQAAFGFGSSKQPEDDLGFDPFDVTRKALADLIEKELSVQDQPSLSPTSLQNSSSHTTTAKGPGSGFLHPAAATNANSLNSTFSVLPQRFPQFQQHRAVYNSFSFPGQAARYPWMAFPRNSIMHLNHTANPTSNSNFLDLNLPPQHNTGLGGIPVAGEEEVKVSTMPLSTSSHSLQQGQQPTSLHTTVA
Outline: as §1

FXYD3_C63 = biological target: T3, FXYD3_C63 (Homo sapiens, UniProt Q14802)
T3 construct: endogenous in cells; host or cells: 22Rv1
T3 sequence (Q14802 21-87): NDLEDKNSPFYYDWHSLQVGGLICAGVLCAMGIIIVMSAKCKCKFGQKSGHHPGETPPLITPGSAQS
Outline: as §1

SLC25A39_C334 = biological target: T4, SLC25A39_C334 (Homo sapiens, UniProt Q9BZJ4)
T4 construct: endogenous in cells; host or cells: 22Rv1
T4 sequence (Q9BZJ4 1-359): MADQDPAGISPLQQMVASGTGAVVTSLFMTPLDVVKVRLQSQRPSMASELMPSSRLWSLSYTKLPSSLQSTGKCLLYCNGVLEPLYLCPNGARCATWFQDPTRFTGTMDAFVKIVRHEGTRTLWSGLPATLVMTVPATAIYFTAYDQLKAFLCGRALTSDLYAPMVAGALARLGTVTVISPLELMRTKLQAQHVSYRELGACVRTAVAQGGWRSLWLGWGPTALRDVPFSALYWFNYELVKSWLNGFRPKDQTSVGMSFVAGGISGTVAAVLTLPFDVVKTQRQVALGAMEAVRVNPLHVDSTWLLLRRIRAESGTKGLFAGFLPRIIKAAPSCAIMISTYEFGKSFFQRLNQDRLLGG
Outline: as §1

PAFAH2_C72 = biological target: T5, PAFAH2_C72 (Homo sapiens, UniProt Q99487)
T5 construct: endogenous in cells; host or cells: 22Rv1
Outline: as §1

SMILES | % engagement ACTL8_C197 (ACTL8_C197) [%] | % engagement CNOT4_C175 (CNOT4_C175) [%] | % engagement FXYD3_C63 (FXYD3_C63) [%] | % engagement SLC25A39_C334 (SLC25A39_C334) [%] | % engagement PAFAH2_C72 (PAFAH2_C72) [%]
C=CC(=O)N1C[C@H](c2ccc(Br)cc2)[C@H]1C(=O)Nc1cccc2cccnc12 [MY-3A, (2S,3S)-1-acryloyl-3-(4-bromophenyl)-N-(quinolin-8-yl)azetidine-2-carboxamide] | 3.25 | 76.5 | 43.5 | 30.5 | 56.75
C=CC(=O)N1C[C@@H](c2ccc(Br)cc2)[C@H]1C(=O)Nc1cccc2cccnc12 [MY-1A, (2S,3R)-1-acryloyl-3-(4-bromophenyl)-N-(quinolin-8-yl)azetidine-2-carboxamide] | 14 | 0 | 48.5 | 23 | 61.75
C=CC(=O)N1C[C@H](c2ccc(Br)cc2)[C@@H]1C(=O)Nc1cccc2cccnc12 [MY-1B, (2R,3S)-1-acryloyl-3-(4-bromophenyl)-N-(quinolin-8-yl)azetidine-2-carboxamide] | 66.25 | −15 | 52.5 | 45.5 | 61
C=CC(=O)N1C[C@H](c2ccc(Br)cc2)[C@H]1C(=O)Nc1cccc2cccnc12 [MY-3B, (2S,3S)-1-acryloyl-3-(4-bromophenyl)-N-(quinolin-8-yl)azetidine-2-carboxamide] | 36.75 | 76 | 71 | 72 | 81
